Experimental data published in patent US6399766B2, “4-halogenated steroids, their preparation process and intermediates, their use as medicaments and the pharmaceutical compositions containing them” (Aventis Pharma S.A., priority 1997, dated 2002).

Legend:
[1] = test system: MCF-7 human mammary cells; test: Effect on the proliferation of mammary cells; format: cell-based; design: key: Mixed: slight agonist activity at very low concentrations and an inhibitory activity at higher concentrations; settings: 7 days culture, steroid-free medium, DNA determination; oestradiol at 10^−10M = 100% agonist activity
Description: PHARMACOLOGICAL TESTS Effect on the proliferation of mammary cells The proliferative activity of the molecules is studied in comparison to that of oestradiol on MCF-7 human mammary cells in culture. In order to reveal an agonist effect of the oestradiol and/or the tested molecules, the cell maintenance culture (rich in growth factors and steroids) is replaced by an impoverished medium, amongst others free of steroids (DMEM supplemented with 5% of steroid-free serum and without phenol red). Cells undergo this severance two days before the start of the test. After 7 days culture in the presence of the products to be studied, the cell proliferation is evaluated by determination of the DNA. In each test, the effect of the oestradiol at 10^−10M (cell growth in the presence of oestradiol less cell growth in the presence of the solvent) determines the 100% agonist activity. The activity of the molecules is evaluated in comparison to this internal control.

[2] = test system: ovariectomized female rat; test: Bone impact study in the ovariectomized female rat at the age of 3 months (tibia BMD, uterus weight, seric cholesterol); format: in vivo; settings: OVX rat, 4 weeks; for TIBIA BONE BMD %: (product BMD - OVX BMD)x100/(SHAM BMD - OVX BMD); for UTERUS Weight %: increase in % of uterus weight of OVX animals receiving only solvent; for Cholesterol %: seric cholesterol, % relative to OVX animals receiving only solvent
Protocol: Bone impact study of a product in the ovariectomized female rat at the age of 3 months Compounds A, B, C, D, E are tested in order to determine their effect on the bone mass and on the formation and resorption activity in the model of the ovariectomized rat at the age of 3 months. […] The study is carried out with female rats ovariectomized at the age of 3 months. The animals are kept in an air conditioned room (temperature 20° C.±2° C.) and grouped by 4 into boxes. The animals receive, ad libitum, demineralized water and compressed foods (pellets: AO4CR-10 UAR). The 3 month old female rats weighing approximately 250 g are ovariectomized under anaesthesia with Imalgene 1000, at a dose of 100 mg/kg by intraperitoneal route (i.p.) and under a volume of 1 ml/kg. They also receive Nembutal (3 mg/kg i.p. under a volume of 0.3 ml/kg). After lateral incision, cutaneous and muscular planes are sectioned. The exeresis of each ovary is carried out after ligature of the oviduct. The “SHAM” control rats are anaesthetised under the same conditions. After incision of the cutaneous and muscular planes, each ovary is exposed then replaced in situ. The effects of the products are determined in a preventive treatment. They are administered immediately after the ovariectomy. Animals distributed into groups of 8. Group 1: “SHAM” control rats receiving the vehicle or vehicles Group 2: “OVX” control rats receiving the vehicle or vehicles. Groups X: “OVX” rats receiving respectively defined doses of the product or products to be tested. At the end of 4 weeks (duration of the study) the animals are decapitated by guillotine. The serums collected after centrifugation are preserved at −20° C. A lipidic balance will be established from the serous determinations of total cholesterol, of triglycerides and of phospholipids on a 500 μl aliquot of serum. The lowering of the seric cholesterol level is expressed in % relative to the level shown by the ovariectomized animals receiving only the solvent. The uteri are removed. The latter are weighed. The increase in weight is expressed in % of the weight of the uterus of ovariectomized animals receiving only the solvent. The bone mass (BMD or Bone mineral density) is measured by biphotonic dual energy X-ray absorptiometry (DEXA). The measurements are carried out on bone excized and cleaned of all soft tissue. The BMD (Bone mineral density) is measured on the whole bone as well as on the metaphyseal part at the level of the proximal extremity for the left tibia. This zone is defined as being the region which is richest in trabecular bone; and consequently, is the most sensitive to variations in bone volume and bone mineral density. The results are expressed in % according to the formula: Tested product BMD - OVX BMD ×100/SHAM BMD - OVX BMD

SMILES: C[C@]12C[C@H](c3ccc(OCCN4CCCCC4)cc3)[C@@H]3c4ccc(O)c(Cl)c4CC[C@H]3[C@@H]1CCC2=O [Example 1, 4-chloro-3-hydroxy-11beta-[4-[2-(1-piperidinyl)ethoxy]phenyl]-estra-1,3,5 (10)-trien-17-one]
- ACTIVITY (proliferative activity on MCF-7 cells) [1]: Mixed
- TIBIA BONE BMD % ([2]; 0.3 mg/kg po): 57%
- UTERUS Weight % ([2]; 0.3 mg/kg po): 55%
- Cholesterol % ([2]; 0.3 mg/kg po): −50%
- TIBIA BONE BMD % ([2]; 1.0 mg/kg po): 64%
- UTERUS Weight % ([2]; 1.0 mg/kg po): 55%
- Cholesterol % ([2]; 1.0 mg/kg po): −48%

SMILES: CCN(CC)CCOc1ccc([C@H]2C[C@]3(C)[C@@H](O)CC[C@H]3[C@@H]3CCc4c(ccc(O)c4Cl)[C@H]32)cc1 [Example 20, 4-chloro-11beta-[4-[2-(diethylamino)ethoxy]phenyl]-estra-1,3,5 (10)-triene-3,17beta-diol]
- ACTIVITY (proliferative activity on MCF-7 cells) [1]: Mixed*
- TIBIA BONE BMD % ([2]; 0.3 mg/kg po): 69%
- UTERUS Weight % ([2]; 0.3 mg/kg po): 60%
- Cholesterol % ([2]; 0.3 mg/kg po): −43%
- TIBIA BONE BMD % ([2]; 1.0 mg/kg po): 74%
- UTERUS Weight % ([2]; 1.0 mg/kg po): 50%
- Cholesterol % ([2]; 1.0 mg/kg po): −40%

SMILES: C[C@]12C[C@H](c3ccc(OCCN4CCCCC4)cc3)[C@@H]3c4ccc(O)c(Cl)c4CC[C@H]3[C@@H]1CC[C@@H]2O [Example 22, 4-chloro-11β-[4-[2-(1-piperidinyl)ethoxy]phenyl]-estra-1,3,5(10)-triene-3,17beta-diol]
- ACTIVITY (proliferative activity on MCF-7 cells) [1]: Inactive
- TIBIA BONE BMD % ([2]; 0.3 mg/kg po): 63%
- UTERUS Weight % ([2]; 0.3 mg/kg po): 57%
- Cholesterol % ([2]; 0.3 mg/kg po): −52%

SMILES: C[C@]12C[C@H](c3ccc(OCCN4CCCC4)cc3)[C@@H]3c4ccc(O)c(Cl)c4CC[C@H]3[C@@H]1CC[C@@H]2O [Example 23, 4-chloro-11β-[4-[2-(1-pyrrolidinyl)ethoxy]phenyl]-estra-1,3,5(10)-triene-3,17beta-diol]
- ACTIVITY (proliferative activity on MCF-7 cells) [1]: Mixed
- TIBIA BONE BMD % ([2]; 0.3 mg/kg po): 67%
- UTERUS Weight % ([2]; 0.3 mg/kg po): 64%
- Cholesterol % ([2]; 0.3 mg/kg po): −53%
- TIBIA BONE BMD % ([2]; 1.0 mg/kg po): 71%
- UTERUS Weight % ([2]; 1.0 mg/kg po): 74%
- Cholesterol % ([2]; 1.0 mg/kg po): −53%

SMILES: CC1(O)CCC2C3CCc4c(ccc(O)c4Cl)C3C(c3ccc(OCCN4CCCCC4)cc3)CC21C (stereo not drawn) [Example 30, 4-chloro-17alpha-methyl-11β-[4-[2-(1-piperidinyl)ethoxy]phenyl]-estra-1,3,5(10)-triene-3,17beta-diol.]
- ACTIVITY (proliferative activity on MCF-7 cells) [1]: Mixed
- TIBIA BONE BMD % ([2]; 0.3 mg/kg po): 52%
- UTERUS Weight % ([2]; 0.3 mg/kg po): 68%
- Cholesterol % ([2]; 0.3 mg/kg po): −51%
- TIBIA BONE BMD % ([2]; 1.0 mg/kg po): 71%
- UTERUS Weight % ([2]; 1.0 mg/kg po): 55%
- Cholesterol % ([2]; 1.0 mg/kg po): −48%

SMILES: C[C@]12CC[C@@H]3c4ccc(O)cc4CC[C@H]3[C@@H]1CC[C@@H]2O [Oestradiol, 17β oestradiol, reference compound]
- ACTIVITY (proliferative activity on MCF-7 cells) [1]: Agonist
- TIBIA BONE BMD % ([2]; 0.1 mg/kg s.c.): 105%
- UTERUS Weight % ([2]; 0.1 mg/kg s.c.): 359%
- Cholesterol % ([2]; 0.1 mg/kg s.c.): −35%
